The values below come from patent US20210177814A1, “USE OF GUANABENZ OR DERIVATES THEREOF FOR THE TREATMENT OF TYPE I IFN-DEPENDENT PATHOLOGIES” (INSERM (Institut National de la Santé et de la Recherche …, priority 2018, published 2021).

In one series the target is T1, hTLR7 (Homo sapiens, UniProt Q9NYK1).
T1 construct: expressed in transfected cells; host or cells: HEK-Blue (HEK 293) hTLR7 reporter cells
T1 sequence (Q9NYK1 27-1049): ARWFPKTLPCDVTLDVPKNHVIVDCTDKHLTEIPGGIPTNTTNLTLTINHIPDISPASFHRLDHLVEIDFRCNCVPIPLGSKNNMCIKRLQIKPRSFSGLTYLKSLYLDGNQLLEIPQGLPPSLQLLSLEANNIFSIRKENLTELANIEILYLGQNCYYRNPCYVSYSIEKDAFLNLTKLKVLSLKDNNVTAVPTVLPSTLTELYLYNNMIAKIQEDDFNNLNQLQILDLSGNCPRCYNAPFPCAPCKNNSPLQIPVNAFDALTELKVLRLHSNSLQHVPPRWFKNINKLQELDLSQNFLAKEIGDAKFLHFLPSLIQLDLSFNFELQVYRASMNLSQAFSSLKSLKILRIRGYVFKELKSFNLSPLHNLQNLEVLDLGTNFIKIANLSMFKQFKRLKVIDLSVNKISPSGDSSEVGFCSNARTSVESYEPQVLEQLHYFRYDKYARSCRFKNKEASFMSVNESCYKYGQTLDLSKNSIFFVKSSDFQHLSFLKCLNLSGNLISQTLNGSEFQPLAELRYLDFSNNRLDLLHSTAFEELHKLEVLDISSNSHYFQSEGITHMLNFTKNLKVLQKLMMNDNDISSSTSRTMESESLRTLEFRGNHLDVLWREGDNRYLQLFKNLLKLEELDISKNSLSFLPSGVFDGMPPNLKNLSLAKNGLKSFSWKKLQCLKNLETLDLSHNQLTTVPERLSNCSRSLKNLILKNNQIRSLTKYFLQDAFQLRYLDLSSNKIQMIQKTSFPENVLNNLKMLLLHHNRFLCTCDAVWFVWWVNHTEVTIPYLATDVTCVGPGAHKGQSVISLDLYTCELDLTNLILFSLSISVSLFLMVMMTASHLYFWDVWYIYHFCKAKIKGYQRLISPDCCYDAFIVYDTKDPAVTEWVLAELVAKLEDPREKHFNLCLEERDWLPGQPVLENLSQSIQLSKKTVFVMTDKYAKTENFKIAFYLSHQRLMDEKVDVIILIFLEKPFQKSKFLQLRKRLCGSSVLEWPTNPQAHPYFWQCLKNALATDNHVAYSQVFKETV
The series is described as follows: HEK-Blue hTLR7 SEAP reporter assay. The format is cell-based. Particulars: 5 μg/mL imiquimod, GBZ 50 μM. As to the method:
FIG. 1: Guanabenz inhibits TLR3 and TLR9 activation in mouse Flt3-L DCs and human blood pDCs. A) Sorted bone marrow derived Flt3L-DCs were activated for 6 h with 10 μg/mL poly I:C LMW (TLR3 in DC1) or 1 μM ODN 1585 (TLR9 in pDCs). GBZ was added at 50 μM and inhibited IFN-β and Interleukin-6 (IL-6) production in activated cells. B) hTLR4, hTLR3, hTLR9 and hTLR7 expressed in the reporter HEK-Blue™ cells are inhibited by GBZ. TLR-expressing HEK-Blue™ cells were respectively activated with 100 ng/mL LPS, 10 μg/mL poly I:C LMW, 2.5 μM ODN 2006 or 5 μg/mL imiquimod, respectively. GBZ was added at 50 μM. TLR activity was measured indirectly through SEAP activity as absorbance at 405 nm. […] Protein concentration of IFN-α and TNF-α secreted were measured at the indicated time points or at 16 h. […]
Given the efficiency of GBZ on mouse TLR3 and TLR9, we turned to human TLRs, in order to extend the relevance of our observations. GBZ-mediated inhibition was first evaluated on NF-kB signaling by monitoring secreted alkaline phosphatase (SEAP) reporter levels in HEK-293 cells expressing TLR3, TLR4, TLR7, TLR9 (FIG. 1B). […] The functionality of the TLR9 transduction pathway was next evaluated by using phospho-flow detection of 40S ribosomal protein S6 (rpS6) phosphorylation, a well characterized early signaling event down-stream of TLR activation by LPS or viruses.
(In general: A reporter such as luciferase makes a cellular process visible.)

Series [1] has as its system TLR9 signal transduction pathway. The series is described as follows: Phospho-flow detection of rpS6 phosphorylation after CpG exposure. The format is cell-based. The conditions noted are these: CAL-1 and human B cells, 15 min to 1 h of CpG exposure, data not shown.
The conditions of series [2]: mouse, cited from earlier work.

Take `NC(N)=N/N=C/c1c(Cl)cccc1Cl` [GBZ, 2-(2,6-dichlorobenzylidene)-hydrazinecarboximidamide]: at hTLR7, the “TLR7-dependent activation of the SEAP reporter” value is “inhibited”. Besides, the rpS6 phosphorylation entry in series [1] is “strong reduction”. The spinal cord accumulation entry in series [2] (several hours after single i.p. bolus 2 mg/kg) is on record as “approximately 7 μM”. In addition, the plasma half-life in series [2] (single i.p. bolus 2 mg/kg) was 1.8 h.
